A word on the TD50: it is the 50% point of the dose-response relation for the toxic effect studied.

The source made the active and inactive calls. The rule behind the calls is not given here.

Drawing on PubChem BioAssay AID1745844 (Carcinogenic Potency Database (CPDB), 2022), this text covers TD50 and carcinogen call for 7 compounds.

The subject of this data set is rodent lifetime carcinogenesis bioassay, tumor incidence TD50. The experiment in a line: chronic cancer bioassays in animals – CPDB, compiled studies (AID 1745844).

Take `CN(N=O)C(=O)NCCC[C@H](N)C(=O)O`: the TD50 is, setting by setting: (rat, strain Wistar albino, females, i.p., site: kidney, lesion: epithelial neoplasm, dosed 26 weeks, study length 52 weeks) 0.633 mg/kg/day; (rat, strain Wistar albino, females, i.p., site: kidney, lesion: mesenchymal neoplasm, dosed 26 weeks, study length 52 weeks) 0.633 mg/kg/day; (rat, strain Wistar albino, females, i.p., site: pancreas, lesion: adenocarcinoma in adenomatous polyp, dosed 26 weeks, study length 52 weeks) 11 mg/kg/day; (rat, strain Wistar albino, females, i.p., site: skin, lesion: neoplasm, dosed 26 weeks, study length 52 weeks) 1.42 mg/kg/day; (rat, strain Wistar albino, males, i.p., site: Zymbal's gland, lesion: carcinoma, dosed 26 weeks, study length 52 weeks) 11.8 mg/kg/day; (rat, strain Wistar albino, males, i.p., site: kidney, lesion: epithelial neoplasm, dosed 26 weeks, study length 52 weeks) 1.04 mg/kg/day. For the same compound, the TD50 (rat, strain Wistar albino, males, i.p., site: kidney, lesion: mesenchymal neoplasm, dosed 26 weeks, study length 52 weeks) is 1.57 mg/kg/day; the TD50 (rat, strain Wistar albino, males, i.p., site: pancreas, lesion: adenocarcinoma, dosed 26 weeks, study length 52 weeks) was 11 mg/kg/day; the TD50 (rat, strain Wistar albino, males, i.p., site: pancreas, lesion: several types, types named in the paper, dosed 26 weeks, study length 52 weeks) is 5.25 mg/kg/day; the TD50 (rat, strain Wistar albino, males, i.p., site: skin, lesion: neoplasm, dosed 26 weeks, study length 52 weeks) was 1.04 mg/kg/day. In addition, the carcinogen call (rat, strain Wistar albino, females, i.p., site: mammary tissue, wider than the gland, lesion: several types, types named in the paper, dosed 26 weeks, study length 52 weeks) is “positive”.

As to `CC(O)C(=O)O` (configuration not stated), the TD50 runs as follows: (rat, strain F344/DuCrj, females, in drinking water, site: any site (literature study), lesion: one or several types, types not named, dosed 104 weeks, study length 113 weeks) 103000 mg/kg/day; (rat, strain F344/DuCrj, males, in drinking water, site: liver, lesion: hepatocellular adenoma, dosed 104 weeks, study length 113 weeks) 54500 mg/kg/day.

Consider `OC[C@H]1O[C@H](O[C@]2(CCl)O[C@H](CCl)[C@@H](O)[C@@H]2O)[C@H](O)[C@@H](O)[C@H]1Cl`, for which the carcinogen call runs as follows: (mouse, strain Charles River CD1, females, in feed, site: any site (literature study), lesion: several types, types named in the paper, dosed 104 weeks, study length 104 weeks) “negative (inactive)”; (mouse, strain Charles River CD1, females, in feed, site: liver, lesion: hepatocellular adenoma, dosed 104 weeks, study length 104 weeks) “negative (inactive)”; (mouse, strain Charles River CD1, females, in feed, site: lung, lesion: adenoma, dosed 104 weeks, study length 104 weeks) “negative (inactive)”; (mouse, strain Charles River CD1, females, in feed, site: lung, lesion: carcinoma, dosed 104 weeks, study length 104 weeks) “negative (inactive)”; (mouse, strain Charles River CD1, males, in feed, site: any site (literature study), lesion: several types, types named in the paper, dosed 104 weeks, study length 104 weeks) “negative (inactive)”; (mouse, strain Charles River CD1, males, in feed, site: liver, lesion: hepatocellular adenoma, dosed 104 weeks, study length 104 weeks) “negative (inactive)”. The carcinogen call (mouse, strain Charles River CD1, males, in feed, site: liver, lesion: hepatocellular carcinoma, dosed 104 weeks, study length 104 weeks) was “negative (inactive)” and the carcinogen call (mouse, strain Charles River CD1, males, in feed, site: lung, lesion: carcinoma, dosed 104 weeks, study length 104 weeks) was “negative (inactive)”. Besides, the TD50 is, setting by setting: (mouse, strain Charles River CD1, females, in feed, site: liver, lesion: hepatocellular carcinoma, dosed 104 weeks, study length 104 weeks) 98200 mg/kg/day (inactive); (mouse, strain Charles River CD1, males, in feed, site: lung, lesion: adenoma, dosed 104 weeks, study length 104 weeks) 35100 mg/kg/day (inactive).

With `C=C1C(C)(C)[C@@]2(Cl)C(Cl)[C@]1(Cl)C(Cl)(Cl)C2(Cl)Cl` (some centres not stated), the TD50 reads like this: (mouse, strain B6AKF1, males, oral dosing, site: any site (literature study), lesion: several types, types named in the paper, dosed 79 weeks, study length 79 weeks) 0.75 mg/kg/day; (mouse, strain B6AKF1, males, oral dosing, site: liver, lesion: hepatoma, dosed 79 weeks, study length 79 weeks) 0.644 mg/kg/day; (mouse, strain B6C3F1, females, oral dosing, site: any site (literature study), lesion: several types, types named in the paper, dosed 79 weeks, study length 79 weeks) 3.37 mg/kg/day; (mouse, strain B6C3F1, females, oral dosing, site: lung, lesion: adenoma, dosed 79 weeks, study length 79 weeks) 10.7 mg/kg/day; (mouse, strain B6C3F1, males, oral dosing, site: all sites, lesion: reticulum-cell sarcoma, dosed 79 weeks, study length 79 weeks) 1.41 mg/kg/day; (mouse, strain B6C3F1, males, oral dosing, site: any site (literature study), lesion: several types, types named in the paper, dosed 79 weeks, study length 79 weeks) 0.75 mg/kg/day. In addition, the TD50 was 4 mg/kg/day (mouse, strain B6C3F1, males, oral dosing, site: liver, lesion: hepatoma, dosed 79 weeks, study length 79 weeks) and 8.29 mg/kg/day (mouse, strain B6C3F1, males, oral dosing, site: lung, lesion: adenoma, dosed 79 weeks, study length 79 weeks).

On to `CC(C)=NNc1nc(-c2ccc([N+](=O)[O-])o2)cs1`, for which the TD50 is, setting by setting: (rat, strain Holtzman albino (Sprague-Dawley derived), females, in feed, site: forestomach, lesion: squamous-cell papilloma, dosed 36 weeks, study length 54 weeks) 11 mg/kg/day; (rat, strain Holtzman albino (Sprague-Dawley derived), females, in feed, site: forestomach, lesion: squamous-cell papilloma, dosed 44 weeks, study length 60 weeks) 6.05 mg/kg/day.

Consider `C=C1C[C@]23C[C@@]1(O)CC[C@H]2[C@@]12C=C[C@H](O)[C@@](C)(C(=O)O1)[C@H]2[C@@H]3C(=O)O`, for which the carcinogen call is “negative (inactive)” (mouse, strain B6AKF1, females, oral dosing, site: any site (literature study), lesion: several types, types named in the paper, dosed 76 weeks, study length 76 weeks); “negative (inactive)” (mouse, strain B6AKF1, females, oral dosing, site: liver, lesion: hepatoma, dosed 76 weeks, study length 76 weeks); “negative (inactive)” (mouse, strain B6AKF1, females, oral dosing, site: lung, lesion: adenoma, dosed 76 weeks, study length 76 weeks); “negative (inactive)” (mouse, strain B6C3F1, females, oral dosing, site: liver, lesion: hepatoma, dosed 76 weeks, study length 76 weeks); “negative (inactive)” (mouse, strain B6C3F1, females, oral dosing, site: lung, lesion: several types, types named in the paper, dosed 76 weeks, study length 76 weeks). Also, the TD50 runs as follows: (mouse, strain B6AKF1, males, oral dosing, site: any site (literature study), lesion: several types, types named in the paper, dosed 76 weeks, study length 76 weeks) 151 mg/kg/day (inactive); (mouse, strain B6AKF1, males, oral dosing, site: liver, lesion: hepatoma, dosed 76 weeks, study length 76 weeks) 316 mg/kg/day (inactive); (mouse, strain B6AKF1, males, oral dosing, site: lung, lesion: several types, types named in the paper, dosed 76 weeks, study length 76 weeks) 460 mg/kg/day (inactive); (mouse, strain B6C3F1, females, oral dosing, site: any site (literature study), lesion: several types, types named in the paper, dosed 76 weeks, study length 76 weeks) 1150 mg/kg/day (inactive); (mouse, strain B6C3F1, males, oral dosing, site: any site (literature study), lesion: several types, types named in the paper, dosed 76 weeks, study length 76 weeks) 214 mg/kg/day (inactive); (mouse, strain B6C3F1, males, oral dosing, site: liver, lesion: hepatoma, dosed 76 weeks, study length 76 weeks) 460 mg/kg/day (inactive). Further, the TD50 (mouse, strain B6C3F1, males, oral dosing, site: lung, lesion: adenoma, dosed 76 weeks, study length 76 weeks) was 952 mg/kg/day (inactive).

With `CC(=O)Oc1ccccc1C(=O)O`, the carcinogen call (mouse, strain C57BL/6, females, in feed, site: liver, lesion: one or several types, types not named, dosed 77 weeks, study length 77 weeks) was “negative (inactive)”; the carcinogen call (mouse, strain C57BL/6, males, in feed, site: liver, lesion: one or several types, types not named, dosed 77 weeks, study length 77 weeks) is “negative (inactive)”; the carcinogen call (rat, strain Fischer 344, males, in feed, site: colon, lesion: one or several types, types not named, dosed 56 weeks, study length 56 weeks) was “negative (inactive)”; the carcinogen call (rat, strain Wistar, males, in feed, site: liver, lesion: one or several types, types not named, dosed 52 weeks, study length 52 weeks) is “negative (inactive)”; the carcinogen call (rat, strain albino, both sexes, by gavage, site: forestomach, lesion: one or several types, types not named, dosed 78 weeks, study length 78 weeks) was “negative (inactive)”; the carcinogen call (rat, strain albino, both sexes, by gavage, site: stomach, glandular, lesion: one or several types, types not named, dosed 78 weeks, study length 78 weeks) is “negative (inactive)”. Under “rat, strain Fischer 344, males, in feed, site: urinary bladder, lesion: papilloma, dosed 68 weeks, study length 68 weeks”, this compound came in with a TD50 of 1670 mg/kg/day.
